Test results reported in US12090184B2, “Traditional Chinese medicine composition for treating dermatophytosis and bromhidrosis and application thereof” (JINGCHU UNIVERSITY OF TECHNOLOGY, priority 2019, dated 2024).

What was measured:
Format in all cases: cell-based
[1] = system: Aspergillus fumigatus ATCC-MYA-3626; assay: in vitro anti-fungal test, 80% MIC (CLSI M-38P)
Description: (§1) 1. The present disclosure conducts an in vitro anti-fungal test on the composition extracts in Examples 1 to 3, and the single radix sophorae flavescentis alkaloid and single peristrophe japonica extracts prepared in Example 3. The cell strains used in the test are all ATCC standard strains provided by the Fungi Center of the Medical Microbial (Virus) Species Collection and Management Center of the Ministry of Health, which includes as follows, Aspergillus: Aspergillus fumigatus Strain Number: CMCCC(F) A1g (ATCC-MYA-3626); Candida: Candida albicans Strain Number: CMCCC (F) C.1L (ATCC90028); Trichophyton: Trichophyton rubrum Strain Number: CMCCC(F)T.1h (ATCC-MYA-4438); Trichophyton mentagrophytes Strain Number: CMCCC(F)T.5e (ATCC-MYA-4439).
(§2) 2. The specific experimental methods are carried out with reference to the standard methods of yeast M-27A3 and filamentous fungi M-38P issued by the Clinical and Laboratory Standards Institute (US, CLSI) of the United States.
(§3) Before the experiment, after activating the experimental bacteria, yeast are cultured on Sabouraud Dextrose Agar(SDA) medium at 30° C. for 48 hours; filamentous fungi are cultured on potato dextrose agar (PDA) medium at 26° C. for 7 days to 10 days. A suspension is prepared with sterile normal saline, the suspension is counted by a hemocytometer, and is dilute with RMPI-1640 liquid medium containing 2% glucose in multiple amounts to Candida albicans 1.0×10^3 cfu/mL; the other three filamentous fungi are prepared into 2.5×10^4 cfu/mL. 0.1 mL of bacterial solutions are taken respectively, the culture medium containing the compositions prepared in Examples 1 to 3 and the same doses of the radix sophorae flavescentis alkaloids and the peristrophe japonica extracts prepared in Example 3 are added into each well, wherein the well 11 is a vehicle control, the well 12 is a medium control. 0.1 mL of the diluted solvent is added into the vehicle control well, and 0.1 mL of the distilled water is added into the control well. […]

[2] = system: Trichophyton mentagrophytes ATCC-MYA-4439; assay: in vitro anti-fungal test, 80% MIC (CLSI M-38P)
Description: as §1, §2, §3

[3] = system: Trichophyton rubrum ATCC-MYA-4438; assay: in vitro anti-fungal test, 80% MIC (CLSI M-38P)
Description: as §1, §2, §3

[4] = system: Candida albicans ATCC90028; assay: in vitro anti-fungal test, 80% MIC (CLSI M-27A3)
Description: as §1
2. […]
Before the experiment, after activating the experimental bacteria, yeast are cultured on Sabouraud Dextrose Agar(SDA) medium at 30° C. for 48 hours; filamentous fungi are cultured on potato dextrose agar (PDA) medium at 26° C. for 7 days to 10 days. A suspension is prepared with sterile normal saline, the suspension is counted by a hemocytometer, and is dilute with RMPI-1640 liquid medium containing 2% glucose in multiple amounts to Candida albicans 1.0×10^3 cfu/mL; the other three filamentous fungi are prepared into 2.5×10^4 cfu/mL. […]

CCC(C)n1ncn(-c2ccc(N3CCN(c4ccc(OCC5COC(Cn6cncn6)(c6ccc(Cl)cc6Cl)O5)cc4)CC3)cc2)c1=O (stereo not shown) [Itraconazole]
80% MIC [1]: 4.2 | 80% MIC [2]: 5.8 | 80% MIC [3]: 5.6 | 80% MIC [4]: 3.8
